“Also recorded” adds a separate entry of the source.
Tests used:
[1] = tested on: myocardial infarction induced interstitial fibrosis; test: Anti-fibrosis effect in a rat model of myocardial infarction (interstitial fibrosis, Masson's Trichrome staining); assay type: in vivo
Description: The present study assessed the effect of dextran sulfate in inhibiting or reducing fibrosis in a rat model of myocardial infarction (MI).
The myocardial infarction model in rat involved ligations of the left coronary artery permanently with an intramural stitch. The surgery caused obstruction of the blood flow and subsequently to severe ischemic damage and cardiac walls infarct.
In total 120 female SD rats having an average body weight of 178 g at study initiation (Day 0) were obtained from Harlan Laboratories, Israel. Animals were fed ad libitum a commercial rodent diet (Teklad Certified Global 18% Protein Diet). Animals had free access to autoclaved and acidified drinking water (pH between 2.5 and 3.5) obtained from the municipality supply. Animals were housed under standard laboratory conditions, air conditioned and filtered (HEPA F6/6) with adequate fresh air supply (minimum air changes/hour). Animals were kept in a climate controlled environment with a temperatures range of 20-24° C. and RH range of 30-70% with 12 hours light and 12 hours dark cycle.
Dextran sulfate with an average molecular weight within a range of 5-7 kDa was dissolved in 0.9% NaCl (saline) (Teva Pharmaceutical Industries Ltd) to be injected subcutaneous at doses of 15 mg/kg or 3 mg/kg. […]
Masson's Trichrome Staining was used for fibrosis evaluation. […] The sections were visualized in a computer-imaging system and infarct size was marked and calculated using the ImageJ program. For each animal, five serial sections including one containing the ligature were analyzed and the mean value of all sections for each heart was treated as one value for statistical analysis. […]
Interstitial fibrosis in the marginal area of the infarct was estimated manually in heart sections stained with Masson's Trichrome Staining. The area of interstitial fibrosis was calculated as the percent of the total area of the left ventricle. For each rat five cross-sections were analyzed.

[2] = orally delivered; mice, rats, hamsters and guinea pigs; cited from earlier work

Dextran sulfate
interstitial fibrosis compared to vehicle control group 1M (in words) ([1]; group 2M: 15 mg/kg s.c., 3 times a week for 3 weeks, P<0.01, five weeks post-infarction): significant suppression of myocardial infarction induced interstitial fibrosis; also recorded: significantly decreased fibrosis | extent of interstitial fibrosis (area of interstitial fibrosis as percent of the total area of the left ventricle) ([1]; group 2M: 15 mg/kg s.c., 3 times a week for 3 weeks, female SD rats, margin zone of infarct, day 36 after MI, vehicle group 1M 22.7±1.9%): 11.9±0.9% | extent of interstitial fibrosis compared to vehicle control group 1M (in words) ([1]; groups 3M-5M: 15 mg/kg s.c. 3 times a week for 1 week, 15 mg/kg single dose, 3 mg/kg 3 times a week for 1 week, day 36 after MI): also lower in the other dextran sulfate treated groups 3M-5M, although the difference was not significant | induction of colitis and intestinal fibrosis [2]: known to induce colitis and intestinal fibrosis

From patent US10478451B2, “Use of dextran sulfate” (TX Medic AB, priority 2015, dated 2019)
